87 compounds from a melting point compilation (Tetko et al.; mined from patent text by program, amines drawn as free bases though some values may be those of a salt) can be followed below.

Each structure is given as a SMILES string. Residues, ends and D or L forms follow the SMILES beside them. *: point of attachment. Tos = Cc1ccc(S(=O)(=O)*)cc1; OtBu = CC(C)(C)O*

As usually defined, the melting point is the temperature, or range, at which the solid turns liquid. `O=c1ccocc1OCc1ccccc1` showed a melting point of 82 to 85 °C.

The compound `NC(Cc1c[nH]c2c(Cl)cccc12)C(=O)O` (configuration not stated) returned a melting point of 236 to 239 °C.

`CC(=O)NCC1CC1c1c(-c2ccccc2)ccc2nn(C)cc12` (configuration not stated) yielded a melting point of 156 to 158 °C.

Compound `CS(=O)(=O)N=c1oc2ccccc2o1` returned a melting point of 161 to 163 °C.

For the compound `Cc1cc(C2(C(F)(F)F)CC2(C#N)C#N)ccc1NC(=O)c1cccc(I)c1C(=O)NC(C)C` (configuration not stated), the melting point was 218 to 221 °C.

As to `CCC(CO)(CO)CBr`, the melting point is 78 to 80 °C.

On to `Cc1ccc(-c2noc(-c3ccc4c(c3)C(C)(C)CCC4(C)C)n2)cc1`, for which the melting point is 106 to 109 °C.

`CCCC(CCC)C(=O)N[C@H](C(=O)N[C@H](CO)Cc1c[nH]c2ccccc12)[C@@H](C)CC` displayed a melting point of 190 to 191 °C.

Consider `CC1(C)CC(=O)C(C(=O)Nc2cccc([N+](=O)[O-])c2)C(=O)O1` (configuration not stated), for which the melting point fell in the range of 138 to 140 °C.

Regarding `COC(=O)Cc1cscc1C(=O)O`, the melting point is 121 to 122 °C.

`c1ccc(N(c2ccccc2)c2ccc(-c3ccc(-c4ccnc(Nc5ccc6ccccc6c5)n4)cc3)cc2)cc1` showed a melting point above 300 °C.

Turning to `CC1=CC(c2ccc(C(F)(F)F)cc2)C2=C(CCCC2=O)N1` (configuration not stated), the melting point lay in the range of 116 to 118 °C.

The compound `Cc1ccc(C(=O)CC(C)C(=O)O)cc1` (configuration not stated) gave a melting point of 168 to 170 °C.

`C[C@@H](CN1C(=O)c2ccccc2C1=O)CC(F)(F)F` displayed a melting point of 45 to 47 °C.

On to `CCCC(=O)C1CCC2C3CCC4CC(O)CCC4(C)C3C(=O)CC12C` (configuration not stated), for which the melting point is 112 to 113 °C.

For `Nc1ccc(C(=O)c2ccccc2)cc1C=O`, the melting point worked out at 125 °C.

As to `CCOC(=O)C1=C(C)NC(C)=C(C(=O)OCC)C1c1ccccc1/C=C/C(=O)OC1CCCCC1C` (configuration not stated), the melting point was 165 to 166 °C.

Consider `COc1cc(-c2cccc(Cl)c2)c2cc(C(O)c3cncn3C)ccc2n1` (configuration not stated), for which the melting point amounted to 205 °C.

`CC(C)n1nc(-c2sc(NC(=O)c3ccc(I)cc3)nc2-c2ccccc2)ccc1=O` yielded a melting point of 253 to 254 °C.

For the compound `CCc1ncnc(O)c1F`, the melting point fell in the range of 112 to 114 °C.

`NC(=O)CCn1c(=S)sc2ccccc21` showed a melting point of 226 to 227 °C.

Consider `Cc1ccc2c(c1F)N(C1CC1)C=NS2(=O)=O`, for which the melting point lay in the range of 189 to 192 °C.

Consider `Cc1c(C(=O)O)sc2cc(Cc3cccnc3)ccc12`, for which the melting point fell in the range of 250 to 252 °C.

`CC(=O)c1ccc(NCc2ccc3ccc4nc(C)[nH]c(=O)c4c3c2)cc1` came in with a melting point above 235 °C.

For `c1ccc(COc2cccnc2Cn2ccnc2)cc1`, the melting point is 73 to 74 °C.

`C(=C\c1nc(COc2ccc(CCCn3cncn3)cc2)co1)/c1ccccc1` yielded a melting point of 108 to 109 °C.

`CSC(=S)C1(c2cccc(C)n2)CCCS1` (configuration not stated): the melting point amounted to 80 °C.

Compound `COc1cc2c(cc1OC)N(C)C(=O)CN=C2c1cccc(C(C)=O)c1` yielded a melting point of 148 to 150 °C.

Take `CCCCc1csc2ccc3[nH]c4c(c3c12)CN(Cc1ccccc1)CC4`: the melting point was 127 to 128 °C.

Turning to `O=C(O)Cc1ccc2c(c1)C(c1ccccc1)C(=O)O2` (configuration not stated), the melting point turned out to be 136 °C.

In turn, `CCC(CC)N(O)C(=O)NCCCCCCCCNC(=O)N(O)C(CC)CC` gave a melting point of 89 to 90 °C.

As for `O=C1C(=C(O)Cc2ccccc2)SC(=S)N1c1ccc(Cl)cc1`, the melting point is 134 to 137 °C.

As for `CC(=O)OCC(=O)C1(O)C(C)CC2C3CCC4CC(=O)CCC4(C)C3CCC21C` (configuration not stated), the melting point was found to be 125 °C.

Turning to `COC(=O)C1=C(C)NC(C)=C(C(=O)OC)C1C1CCC(C(=O)O)C1` (configuration not stated), the melting point lay in the range of 177 to 179 °C.

`CCCOc1ccc(S(=O)(=O)NCCc2c[nH]cn2)cc1-c1nc2cc(N)c([N+](=O)[O-])cc2c(=O)[nH]1` registered a melting point of 169 to 172 °C.

`CC(C)(C)OC(=O)NNC(=O)c1cc(OCc2ccccc2)c(OCc2ccccc2)c(CSc2ccncc2)n1` came in with a melting point of 181 to 182 °C.

Compound `COC(=O)c1ccc([N+](=O)[O-])c(OC(C)C)c1` yielded a melting point of 46 to 48 °C.

`C=Cc1nc2cc(-c3ccc(C#N)cc3)ccc2o1` returned a melting point of 143 to 144 °C.

In turn, `c1ccc(-c2ncc(-c3csc(-c4ccccc4)n3)cn2)cc1` displayed a melting point of 214 to 216 °C.

`Cc1c2c(c(C(C)c3ccc(C(C)C)cc3)c(C)c1NC(=O)CC(C)(C)C)OCC2` (configuration not stated) yielded a melting point of 189 to 190 °C.

For the compound `CNS(=O)(=O)c1ccc(C2=C(c3ccccc3)C(=O)C(C)(C)O2)cc1Cl`, the melting point lay within 136 to 137 °C.

As for `O=P(O)(O)C1=CCCCC1`, the melting point was determined as 128 °C.

The compound `Clc1cccc(-c2n[nH]cc2-c2ccnc(NCc3ccccc3)c2)c1` came in with a melting point of 179 to 180 °C.

`CC1(C)C(=O)Oc2ccc3cc(C(=O)NCC(F)(F)F)c(Cn4cncn4)cc3c21` had a melting point of 200 to 201 °C.

Turning to `N=C1SCCN1c1ccc(C(F)(F)F)cc1[N+](=O)[O-]`, the melting point amounted to 153 °C.

`Cc1cccc(C)c1NCCN(C)CC(O)COc1cccc2[nH]ncc12` (configuration not stated) returned a melting point of 120 to 121 °C.

Compound `CCOC(=O)c1cn(-c2ccccc2)nc1OCc1ccccc1` showed a melting point of 113 to 114 °C.

With `CCCCc1nc2c(C)nc(C)cc2n1-c1ccc(CCOC(=O)NS(=O)(=O)c2ccc(C)cc2)cc1`, the melting point was found to be 162 °C.

The compound `CC(=O)c1cccc(Cl)c1C(=O)O` displayed a melting point of 128 to 129 °C.

In the case of `Nc1ccc(C=CC=CC=CC=Cc2ccc(N)cc2)cc1`, the melting point was 262 to 264 °C.

The compound `COc1cc(C(C)=O)cc(OC)c1OCCOc1ccc2ccccc2c1` registered a melting point of 76 to 77 °C.

The compound `O=C(O)CCCC/C=C(\c1cccnc1)c1ccc2c(c1)OCO2` had a melting point of 90 to 91 °C.

`Cc1nc2ccc(C(=O)O)nc2n1Cc1ccc(Cl)cc1Cl`: the melting point is above 260 °C.

Regarding `CCC(C)Nc1nc(-c2cc(OC)c(OC)c(OC)c2)nc2sc(C#N)c(C)c12` (configuration not stated), the melting point is 91 to 93 °C.

Compound `N#Cc1cc(C(=O)NNC(=O)c2occc2-c2cccc(OCc3ccccc3)c2)ccc1O` gave a melting point of 190 to 195 °C.

Take `O=C(Oc1ccc(-c2ccc(OC(=O)c3cc(O)c(Br)c(O)c3)cc2)cc1)c1ccc(O)c(O)c1`: the melting point was in the range of 252 to 254 °C.

In turn, `O=C(c1ccc(OC23CC4CC(CC(C4)C2)C3)cc1)N1CCCC1` registered a melting point of 111 to 113 °C.

`Cc1cc(C(=O)O)cc(C)c1OCCNC(=O)C1Cc2ccccc2N1S(=O)(=O)c1ccc(-c2cccc(C(F)(F)F)c2)cc1` (configuration not stated) had a melting point of 120 to 126 °C.

`CCCN1CC(c2cccc(Cl)c2)=C(c2ccc(S(C)(=O)=O)cc2)C1=O` registered a melting point of 148 to 149 °C.

`CCCc1ccc(S(=O)(=O)c2ccc(F)cc2)cc1S(=O)(=O)NCCc1cccnc1` displayed a melting point of 111 to 113 °C.

In the case of `Cc1ccccc1-c1ccc(Br)cc1C=O`, the melting point lay within 71 to 73 °C.

In turn, `Cc1[nH]n(C2CCOC2)c2nc(-c3ccncc3)nc(=O)c1-2` (configuration not stated) yielded a melting point of 251 °C.

`N#CCc1cccc2c(-c3ccc(Br)cc3)nccc12` returned a melting point of 122 °C.

The compound `CCCCOc1cc(C(CC(=O)OC)N2C(=O)c3ccccc3C2=O)ccc1OC` (configuration not stated) returned a melting point of 54 to 55 °C.

With `COc1ccc(C(=O)CCCC(=O)C(F)(F)F)cc1`, the melting point lay in the range of 67.5 to 68.9 °C.

Turning to `OC(COc1ccc(Cl)cc1Cl)(Cn1cnnc1)Cn1cncn1` (configuration not stated), the melting point was found to be 182 °C.

`COc1ccc(/C=N/Nc2nccc(C(F)(F)F)n2)cc1OC1CCCC1` gave a melting point of 73 to 75 °C.

For `O=C(NCc1ccc(F)cc1)c1sc2ccccc2c1Br`, the melting point was 120 to 125 °C.

`Cc1ccc(S(=O)(=O)N2CCC[C@H]2C(=O)N[C@@H](CC(=O)OC(C)(C)C)C(=O)O)cc1` (Tos-Pro-Asp(OtBu)-OH) displayed a melting point of 153 to 155 °C.

Compound `COC(=O)c1ccc2ccn(Cc3ccc(OCc4ccc5ccccc5n4)cc3)c2c1` came in with a melting point of 125 to 126 °C.

In the case of `O=C(O)c1cn(C2CC2)c2c(C(F)(F)F)c(N3CCN(c4ncccn4)CC3)c(F)cc2c1=O`, the melting point lay in the range of 285 to 287 °C.

As to `CC(C)(C)[Si](C)(C)OC1CC(=O)c2cc(F)ccc21` (configuration not stated), the melting point lay in the range of 56 to 58 °C.

Regarding `CC1=C(C(=O)CS(=O)(=O)NC(C)C)C(c2cccc([N+](=O)[O-])c2)C(C(=O)OC(C)C)=C(C)N1` (configuration not stated), the melting point lay within 119 to 121 °C.

`CCc1nc(/C=C/c2cn(-c3ccccc3)nc2OCc2ccc(OCc3nc(-c4cccc(-c5nnn[nH]5)c4)oc3C)c(OC)c2)cs1` returned a melting point of 144 to 147 °C.

In the case of `CC(C)(CO)NS(=O)(=O)c1cccc(NC(=O)c2cnn3c(C(F)(F)F)cc(-c4ccc(OC(F)(F)F)cc4)nc23)c1`, the melting point was determined as 212 °C.

Turning to `CCOC(=O)c1cc2c(nc1C(=O)OCC)OCC2O` (configuration not stated), the melting point fell in the range of 73 to 77 °C.

`COC(=O)Cc1ccc(OCC(C)NCC(O)c2cccc(Cl)c2)c(O)c1` (configuration not stated) came in with a melting point of 68 °C.

Compound `CCOC(=O)c1cn(-c2cc(N)c(F)cn2)c2c(Cl)c(F)c(F)cc2c1=O` had a melting point of 140 to 148 °C.

Compound `CCCCNc1nc2cc(C)nn2c2c1cnc1c2cnn1CC` registered a melting point of 160 to 162 °C.

In the case of `CCCCCCCCCCCCOCC(C=CC(=O)N(C)C)(C=CC(=O)N(C)C)COCCCCCCCCCCCC`, the melting point lay within 52 to 54 °C.

`C=C(C)C(=O)NCC(=O)NCC(=O)O` displayed a melting point of 200 to 201 °C.

`N#Cc1cc(C(=O)NNC(=O)c2occ(-c3cccc(OCc4ccccc4)c3)c2-c2cccc(OCc3ccccc3)c2)ccc1O` returned a melting point of 171 to 174 °C.

Compound `CCCn1c(=O)[nH]c2cnc(-c3ccccc3)nc21` returned a melting point of 263 to 264 °C.

With `CC(CCC(=O)NCCS(=O)(=O)O)C1CCC2C3C(O)CC4CC(NC(=O)CNC(=O)OC(C)(C)C)CCC4(C)C3CC(O)C12C` (configuration not stated), the melting point fell in the range of 150 to 155 °C.

On to `CCOC(=O)c1cc(C(=O)OC)c(CCN2C(=O)c3ccccc3C2=O)o1`, for which the melting point lay within 122 to 123 °C.

Compound `Cc1cccc2c1nc(-c1c(F)cccc1F)n2Cc1c(F)cccc1F` returned a melting point of 182 to 186 °C.

`CCN(CCN(CC)c1ccc(N=O)c(C)c1)c1ccc(N=O)c(C)c1` had a melting point of 157 °C.
